The source of these data is patent US7368453B2, “Quinazolinone compounds with reduced bioaccumulation” (Chiron Corporation, priority 2003, dated 2008).

Like-named read-outs stand apart in the source and are kept apart here.

The nature of the data set: Tissue half-life (t1/2) and Cmax in plasma, brain, kidney and liver after oral administration to CD-1 mice. The format is in vivo, mouse. Conditions: male, mouse. On the procedure: In vivo studies were conducted to observe the effect of the compounds of the invention in the subject animal. Male CD-1 mice, body weight of 20 grams at arrival, were used in these studies. Mice were given 30 mg/kg of compound in HPMC/Tween solution or suspension via oral gavage. Plasma, brain, and liver samples were collected at time periods of 1, 2, 4, 8, and 24 hours post dosing. One mouse was used per time point. Thus, a total of 5 mice were used for each compound tested. For sample collection, mice were euthanized with CO2. Blood samples were taken by cardiac puncture and kept on ice. Brain and liver samples were collected immediately after bleeding and the samples were kept on dry ice. For calculation of tissue half-lives (t1/2s), the terminal rate constant k was estimated by the absolute value of the slope of a log-linear regression of the terminal phase of the tissue concentration-time profile. The tissue half-life t1/2 is ln(2)/k.
The following table includes t1/2 data for plasma, brain, kidney, and liver obtained after oral administration.
Tissue Half-Life Data for Various Quinazolinone Compounds (PO)

[1] abbreviates: brain t1/2, 30 mg/kg oral gavage (PO), read-out: Half-Lives (h) Brain (converted).
Where [2] appears, read: kidney t1/2, 30 mg/kg oral gavage (PO), read-out: Half-Lives (h) Kidney (converted).
[3] abbreviates: liver t1/2, 30 mg/kg oral gavage (PO), read-out: Half-Lives (h) Liver (converted).
The mark [4] stands for this setting: plasma t1/2, 30 mg/kg oral gavage (PO), read-out: Half-Lives (h) Plasma (converted).

Consider `COc1ccc(CCn2c(-c3cccnc3)nc3cc(NC(=N[C@H]4C[C@H]5C[C@@H]([C@@H]4C)C5(C)C)N4CCN(O)[C@@H](C)C4)ccc3c2=O)c(F)c1` [Example 245, (3S)-N-{3[2(2-fluoro-4-methoxyphenyl)ethyl]-4-oxo-2-pyridin-3-yl-3,4-dihydroquinazolin-7-yl}-4-hydroxy-3-methyl-N′-[(1S,2S,3S,5R)-2,6,6-trimethylbicyclo[3.1.1]hept-3-yl]piperazine-1-carboximidamide], for which the half-life under setting [1] is 3.1 h, the half-life under setting [2] was 1.7 h, the half-life under setting [3] was 5.2 h and the half-life under setting [4] was 2.2 h.

Turning to `COc1ccc(CCn2c(-c3cccnc3)nc3cc(N/C(=N/C4C[C@H]5C[C@@H]([C@@H]4C)C5(C)C)N4CCN(C#N)[C@@H](C)C4)ccc3c2=O)c(F)c1` (some centres unmarked) [Example 246], the half-life under setting [1] is 5.8 h, the half-life under setting [2] was 3.1 h, the half-life under setting [3] is 18 h and the half-life under setting [4] was 5.7 h.

For the compound `COc1ccc(CCn2c(-c3cccnc3)nc3cc(NC(=N[C@H]4C[C@H]5C[C@@H]([C@@H]4C)C5(C)C)N4CCN(CC#N)[C@@H](C)C4)ccc3c2=O)c(F)c1` [Example 247, (3S)-4-(cyanomethyl)-N-{3-[2-(2-fluoro-4-methoxyphenyl)ethyl]-4-oxo-2-pyridin-3-yl-3,4-dihydroquinazolin-7-yl}-3-methyl-N′-[(1S,2S,3S,5R)-2,6,6-trimethylbicyclo[3.1.1]hept-3-yl]piperazine-1-carboximidamide], the half-life is 12 h under setting [1], 11 h under setting [2], 8 h under setting [3] and 18 h under setting [4].

Turning to `COc1ccc(CCn2c(-c3cccnc3)nc3cc(NC(=N[C@H]4C[C@H]5C[C@@H]([C@@H]4C)C5(C)C)N4CCN[C@@H](CF)C4)ccc3c2=O)c(F)c1` [Example 248, (3R)-N-{3-[2-(2-fluoro-4-methoxyphenyl)ethyl]-4-oxo-2-pyridin-3-yl-3,4-dihydroquinazolin-7-yl}-3-(fluoromethyl)-N′-[(1S,2S,3S,5R)-2,6,6-trimethylbicyclo[3.1.1]hept-3-yl]piperazine-1-carboximidamide], the half-life by setting is: under setting [1], 14 h; under setting [2], 11 h; under setting [3], 6.2 h; under setting [4], 5.3 h.

For the compound `COc1ccc(CCn2c(-c3ccncc3)nc3cc(NC(=N[C@H]4C[C@H]5C[C@@H]([C@@H]4C)C5(C)C)N4CCN[C@@H](CF)C4)ccc3c2=O)c(F)c1` [Example 250], the half-life is 3 h under setting [1], 5.7 h under setting [2], 8.8 h under setting [3] and 26 h under setting [4].

Consider `COc1ccc(CCn2c(-c3cnccn3)nc3cc(NC(=N[C@H]4C[C@H]5C[C@@H]([C@@H]4C)C5(C)C)N4CCN[C@@H](CF)C4)ccc3c2=O)c(F)c1` [Example 251, (3R)-N-{3-[2-(2-fluoro-4-methoxyphenyl)ethyl]-4-oxo-2-pyrazin-2-yl-3,4-dihydroquinazolin-7-yl}-3-(fluoromethyl)-N′-[(1S,2S,3S,5R)-2,6,6-trimethylbicyclo[3.1.1]hept-3-yl]piperazine-1-carboximidamide], for which the half-life is, setting by setting: under setting [1], 5.4 h; under setting [2], 8.6 h; under setting [3], 6.8 h; under setting [4], 4 h.

As to `COc1ccc(CCn2c(-c3nnc[nH]3)nc3cc(NC(=N[C@H]4C[C@H]5C[C@@H]([C@@H]4C)C5(C)C)N4CCN[C@@H](CF)C4)ccc3c2=O)c(F)c1` [Example 252, (3R)-N-[3-[2-(2-fluoro-4-methoxyphenyl)ethyl]-4-oxo-2-(4H-1,2,4-triazol-3-yl)-3,4-dihydroquinazolin-7-yl]-3-(fluoromethyl)-N′-[(1S,2S,3S,5R)-2,6,6-trimethylbicyclo[3.1.1]hept-3-yl]piperazine-1-carboximidamide], the half-life under setting [2] was 8.4 h and the half-life under setting [3] is 16 h.
